Data: BindingDB's records for doi:10.1021/acsmedchemlett.7b00315 (Astrazeneca, 2017)

Legend:
[1] = Antagonist activity at human CCR4 expressed in Th2 cells coexpressing CD45RA+ assessed as inhibition of CCL17 induced chemotaxis
[2] = Antagonist activity at human CCR4 expressed in Th2 cells coexpressing CD45RA+ assessed as inhibition of CCL22 induced chemotaxis
[3] = Antagonist activity at CCR4 in human primary Th2 cells by chemotaxis assay

Row | SMILES | IC50 [1] [nM] | IC50 [2] [nM] | IC50 [3] [nM]
1 | COc1nccnc1NS(=O)(=O)c1cccc(Cl)c1Cl | 501 | 501 | 
2 | COc1nc(F)cnc1NS(=O)(=O)c1cccc(Cl)c1Cl | 316 | 158 | 
3 | COc1nc(Br)cnc1NS(=O)(=O)c1ccc(Cl)s1 |  |  | 200
